Measurements reported in patent US10508069B2, “Acid/salt separation” (PURAC BIOCHEM B.V., priority 2011, dated 2019).
Like-named read-outs stand apart in the source and are kept apart here. Blank lines part the entries; values can stand above or below the compound they belong to.

Assays:
[1] = Dicarboxylic acid remaining in solution while the HCl-acidified magnesium dicarboxylate solution is cooled (precipitation); type: physicochemical
Procedure: Magnesium hydroxide was added to a solution of dicarboxylic acid in water and heated up to complete dissolution. Four different carboxylic acids were used: adipic acid, fumaric acid, itaconic acid and 2,5-furandicarboxylic acid. The resulting dicarboxylate solution was meant to resemble a magnesium dicarboxylate solution obtained in a fermentation process. Although a magnesium dicarboxylate solution obtained in a fermentation process generally comprises compounds other than magnesium dicarbooxylate, such as a relatively large amount of impurities, the magnesium dicarboxylate solution prepared for this example was considered to sufficiently resemble a magnesium dicarboxylate solution obtained in a fermentation process to show the proof of principle that the invention works.
A certain amount of an aqueous solution of HCl was added to the magnesium dicarboxylate solution from Example 1, as indicated in Table 2. […] During cooling, samples were taken of the solution for each 10±1 centigrade.
The amount of crystal produced was calculated as difference between the initial dicarboxylic mass and the remaining dicarboxylic mass in solution.

[2] = water at 20° C.; cited from earlier work
[3] = Procedure: An amount of 333 g aqueous solution of HCl (37 wt. % wt %) was added to the thus prepared magnesium succinate solution. […] During cooling, samples were taken of the solution and the precipitate of the mixture at 62, 52, 40, 31 and 20° C. The composition of the samples and the total amount of precipitate formed were determined.
The samples were taken only from the solution (for sampling, stirrer was stopped some few seconds, and after crystal settling, a sample was taken from the supernatant).

[4] = remark: listed apart in the source
Procedure: The solution was then cooled from 115° C. to 20° C. […] The precipitate was separated from the solution by filtration using a standard gravity filter.

[5] = 20 ° C., MgCl2 solution, over precipitate
[6] = 30 ° C., MgCl2 solution, over precipitate
[7] = 40 ° C., MgCl2 solution, over precipitate
[8] = 50 ° C., MgCl2 solution, over precipitate
[9] = 60 ° C., MgCl2 solution after HCl acidulation, no precipitate yet

Compound: O=C(O)CCCCC(=O)O [Adipic Acid, adipic acid]
Adipic Acid concentration in the solution [1, 5]: 0.7 wt %
Adipic Acid concentration in the solution [1, 6]: 1.2 wt %
Adipic Acid concentration in the solution [1, 7]: 2 wt %
Adipic Acid concentration in the solution ([1]; 51 ° C., MgCl2 solution, over precipitate): 3.5 wt %
Adipic Acid concentration in the solution ([1]; 60 ° C., MgCl2 solution, over precipitate): 6.1 wt %
Adipic Acid concentration in the solution ([1]; 70 ° C., MgCl2 solution, over precipitate): 11.5 wt %
Adipic Acid concentration in the solution ([1]; 81 ° C., MgCl2 solution after HCl acidulation, no precipitate yet): 14.2 wt %

Compound: [Cl-].[Cl-].[Mg+2] [MgCl2, magnesium chloride]
saturation point in water [2]: 55 g/100 g water

Compound: C=C(CC(=O)O)C(=O)O [Itaconic Acid, itaconic acid]
Itaconic Acid concentration in the solution [1, 5]: 2.6 wt %
Itaconic Acid concentration in the solution [1, 6]: 4.1 wt %
Itaconic Acid concentration in the solution ([1]; 41 ° C., MgCl2 solution, over precipitate): 6.0 wt %
Itaconic Acid concentration in the solution [1, 8]: 9.4 wt %
Itaconic Acid concentration in the solution [1, 9]: 13.2 wt %

Other lines, results leading:

2,5-Furandicarboxylic Acid concentration in the solution ([1]; 22 ° C., MgCl2 solution, over precipitate): 0.06%
2,5-Furandicarboxylic Acid concentration in the solution ([1]; 32 ° C., MgCl2 solution, over precipitate): 0.14%
2,5-Furandicarboxylic Acid concentration in the solution ([1]; 42 ° C., MgCl2 solution, over precipitate): 0.33%
2,5-Furandicarboxylic Acid concentration in the solution ([1]; 53 ° C., MgCl2 solution, over precipitate): 0.25%
2,5-Furandicarboxylic Acid concentration in the solution ([1]; 62 ° C., MgCl2 solution, over precipitate): 0.38%
2,5-Furandicarboxylic Acid concentration in the solution ([1]; 72 ° C., MgCl2 solution, over precipitate): 0.19%
2,5-Furandicarboxylic Acid concentration in the solution ([1]; 84 ° C., MgCl2 solution, over precipitate): 0.52%
Compound: O=C(O)c1ccc(C(=O)O)o1 [2,5-Furandicarboxylic Acid, 2,5-furandicarboxylic acid]

Succinic Acid concentration in the solution [3, 5]: 2.10 wt. %
Succinic Acid concentration in the solution ([3]; 31 ° C., MgCl2 solution, over precipitate): 3.40 wt. %
Succinic Acid concentration in the solution [3, 7]: 5.00 wt. %
Succinic Acid concentration in the solution ([3]; 52 ° C., MgCl2 solution, over precipitate): 8.20 wt. %
Succinic Acid concentration in the solution ([3]; 62 ° C., MgCl2 solution after HCl acidulation, no precipitate yet): 13.13 wt. %
succinic acid present in the filtrate ([4]; HPLC, filtrate after cooling from 115° C. to 20° C., 31.7 wt. % magnesium chloride): 0.22 wt. %
Content succínic, Solution ([4]; solution after cooling to 20° C. and filtration, concentrated to 31.7 wt. % magnesium chloride): 0.22%
Compound: O=C(O)CCC(=O)O [Succinic Acid, succinic acid]

Fumaric Acid concentration in the solution [1, 5]: 0.5 wt %
Fumaric Acid concentration in the solution [1, 6]: 0.5 wt %
Fumaric Acid concentration in the solution ([1]; 39 ° C., MgCl2 solution, over precipitate): 0.7 wt %
Fumaric Acid concentration in the solution [1, 8]: 1.1 wt %
Fumaric Acid concentration in the solution [1, 9]: 1.6 wt %
Compound: O=C(O)/C=C/C(=O)O [Fumaric Acid, fumaric acid]
